Converted amounts (≈) assume the structure as drawn. Where two headings read alike, the source gives them in different places.
Columns and labels:
L1210 cells [1] = format: cell-based, mouse
Method: (§1) Mouse L1210 and S-180 cells were maintained as suspension cultures in Fischer's medium supplemented with 10% horse serum at 37° C. in a humidified atmosphere of 5% CO2 -95% air. Under these conditions the generation time for L1210 and S-180 cells is approximately 12 and 18 hours, respectively. The test compound at the given concentration, was added to L1210 and S-180 cells (2×10^4 cells/mL) which were in their exponential phase of growth. The increase in cell number of the drug-free culture (control), as well as that of the cultures supplemented with the test compound, was determined after 24, 48 and 72 hours of growth.
(§2) At a 5 μM concentration of this compound the addition of 25 μM and 100 μM of 2'-deoxycytidine prevented the cytotoxicity of the novel compound against L1210 cells by 35% and 100% respectively.

S-180 cells [2] = format: cell-based, mouse; details: 25 μM 2'-deoxycytidine added to 20 μM of the new compound
Method: as §1, §2

[3] = test system: cytotoxicity of the novel compound; format: cell-based; details: in words
Method: as §2

[4] = Water solubility of the new compound; format: physicochemical; details: at 23° C.
Method: The new compound has excellent water solubility (~0.5 g/mL at 23° C.) and readily forms non-toxic acid addition salts with a variety of pharmacologically acceptable organic and inorganic salt-formingreagents. Thus, acid addition salts formed by admixture of the organic free base with up to two equivalents of an acid, suitably in a neutral solvent, are formed with such acids as sulfuric, phosphoric, hydrochloric,hydrobromic, sulfamic, citric, lactic, malic, succinic, tartaric, acetic, benzoic, gluconic, ascorbic, and the like. For purposes of this invention, the free base is equivalent to the non-toxic acid addition salts. The acid addition salts are, in general, crystalline solids, very soluble in water, relatively soluble in methanol and ethanol but relatively insoluble in non-polar organic solvents such as diethyl ether, benzene, toluene, and the like.

L1210 leukemia = L1210 leukemia in CDF1 mice, survival time (T/C); format: in vivo, mouse (CDF1 female mice); details: 160 mg/kg i.p. twice a day for 3 days, starting 24 hours post inoculation of 1×10^5 L1210 cells
Method: Transplantation of L1210 ascites cells was carried out by withdrawing peritoneal fluid from donor CDF1 mice bearing 7-day growths. The suspension was centrifuged for 2 minutes (1600 g), the supernatant peritoneal fluid was decanted, and a 10-fold dilution with isotonic saline was made. The cell number was determined with a Coulter particle counter and the cell population was adjusted to 10^6 cells/mL. One-tenth mL of the resulting cell suspension (containing approximately 10^5 cells) was injected intraperitoneally into each animal. The drug was administered by intraperitoneal injection, beginning 24 hours after tumor implantation,twice daily for 3 consecutive days. The test compound was injected as a solution in isotonic saline. The drug was administered intraperitoneally in a volume of 0.25 mL. […] Mice were weighed during the course of the experiments, and the percentage change in body weight from onset to termination of therapy was used as an indication of drug toxicity. Determination of the sensitivity of ascitic neoplasms to this agent were based on the prolongation of survival time afforded by the drug treatments. The median survival time and the ratio of survival time for treated (T)/control (C) was calculated.
3'-Amino-2',3'-dideoxycytidine was screened against CDF1 female mice bearing L1210 leukemia according to the above protocol. Three groups of mice with 4 mice in each group were inoculated with 1×10^5 L1210 murine leukemia cells. Starting 24 hours post inoculation, the first group of mice was injected with saline as the vehicle control, the second group with 160 mg/kg of the test compound in saline twice a day, for 3 days. All control mice died by day 9. In the group treated with the test compound, one mouse died at day 21, the second at day 24, the third at day 29 and the last one at day 31, yielding a T/C×100 value of 283.

L1210 cells [5] = assay: Inhibition of replication of L1210 cells in vitro; format: cell-based; details: Mus musculus, mean cell counts after 72 hours, triplicate, read-out: ID50 (L1210)
Method: as §1
(§3) 3'-Amino-2',3'-dideoxycytidine was also screened against S-180 neoplastic cells in vitro. The ID50 values were estimated from dose-response curves compiled from at least two independent experiments and represent the drug concentration required to inhibit replication of L1210 or S-180 neoplastic cells by 50%.
(§4) ID50 values were determined from plots of mean cell counts after 72
(§5) hours. Assays were carried out in triplicate with appropriate controls.

S-180 cells [6] = assay: Inhibition of replication of S-180 cells in vitro; format: cell-based; details: Mus musculus, mean cell counts after 72 hours, triplicate, read-out: ID50 (S-180)
Method: as §1, §3, §4, §5

[7] = 4 mice, all controls died by day 9

Compound	prevention of the cytotoxicity of the novel compound against L1210 cells (L1210 cells [1]; 25 μM 2'-deoxycytidine added to 5 μM of the novel compound) [%]	prevention of the cytotoxicity of the novel compound against L1210 cells (L1210 cells [1]; 100 μM 2'-deoxycytidine added to 5 μM of the novel compound) [%]	preventive effect on the cytotoxicity of the novel compound against L1210 cells (L1210 cells [1]; dose dependence, in words)	prevention of the cytotoxicity of the novel compound against S-180 cells (S-180 cells [2]) [%]	prevention of the cytotoxicity of the novel compound [3]	solubility [4] [mg/mL]	T/C×100 (survival time treated/control) (L1210 leukemia)	day of death, first mouse (L1210 leukemia; [7]) [days]	day of death, last mouse (L1210 leukemia; [7]) [days]	day of death, second mouse (L1210 leukemia; [7]) [days]	day of death, third mouse (L1210 leukemia; [7]) [days]	IC50 (L1210 cells [5]) [µM]	IC50 (S-180 cells [6]) [µM]
Nc1ccn([C@H]2C[C@H](O)[C@@H](CO)O2)c(=O)n1 [2'-deoxycytidine]	35	100	dose dependent	27	uniquely prevented	–	–	–	–	–	–	–	–
Nc1ccn([C@H]2C[C@H](N)[C@@H](CO)O2)c(=O)n1 [3'-amino-2',3'-dideoxycytidine, 3'-Amino-2',3'-dideoxycytidine]	–	–	–	–	–	~500 (≈ 2210 mM)	283	21	31	24	29	0.7	4
